In publication PMC3580045 (Journal of pharmacy & pharmaceutical sciences : a …, 2012):
Like-named read-outs stand apart in the source and are kept apart here. Marks after values point to notes of the source that are not given here.

Legend:
[1] = mean ± SD; cited from earlier work
[2] = Hydrolysis in human small intestinal; assay type: in vitro ADME
[3] = Stability in human liver microsomes; settings: for Half-lives, Human Liver Microsomes: mean ± SD, n = 3, NA = no significant degradation
[4] = Hydrolysis in human tumor liver tissue homogenate; assay type: in vitro ADME; settings: mean ± SD, n = 3; NA = no significant degradation
[5] = pH 7.4 phosphate buffer, 37°C; mean ± SD; cited from earlier work
[6] = Hydrolysis in human non-tumor liver tissue homogenate; assay type: in vitro ADME; settings: for Half-lives, Human non-Tumor Liver Tissue Homogenate: mean ± SD, n = 3, NA = no significant degradation
[7] = Hydrolysis in Caco-2 cell homogenate; assay type: in vitro ADME, human; settings: for Half-lives, Caco-2 Cell Homogenate: pH 7.4 phosphate buffer, 37°C, mean ± SD, n = 3, NA = no significant degradation
[8] = Hydrolysis in Capan-2 cell homogenate; assay type: in vitro ADME, human
[9] = mean ± SD; cited from earlier work; remark: listed apart in the source
[10] = Hydrolysis in human pancreas; assay type: in vitro ADME; settings: human pancreas tissue homogenate
[11] = reported by several groups; cited from earlier work
[12] = Hydrolysis in AsPC-1 cell homogenate; assay type: in vitro ADME; settings: human, pH 7.4
[13] = phosphate buffer

| SMILES | Half-lives, AsPC-1 Cell Homogenate [1] | Half-lives, Human Liver Microsomes [3] [min] | Half-lives, Human Tumor Liver Tissue Homogenate [4] | Half-lives, Buffer pH 7.4 [5] | Half-lives, Human non-Tumor Liver Tissue Homogenate [6] [min] | Half-lives, Caco-2 Cell Homogenate [7] [min] | Half-lives, Capan-2 Cell Homogenate [9] | other results |
| --- | --- | --- | --- | --- | --- | --- | --- | --- |
| CC(C)[C@@H](N)C(=O)OC[C@H]1O[C@@H](n2cc(F)c(=O)[nH]c2=O)C[C@@H]1O [5′-O-D-valyl-floxuridine] | 290.9 ± 48.9 ^a min | 705.9 ± 64.2 | 9.4 ± 0.5 ^∞ min | 344.9 ± 10.2 ^a min | 19.0 ± 0.2 | 220.4 ± 64.0 | – | fold more stable than 5′-O-L-valyl-floxuridine ([2]; human intestinal tissue homogenate): 11.3 fold; fold better stability than 5′-O-L-valyl-floxuridine ([3]; human liver microsomes): 243 fold; fold more stable in human liver microsomes than in human liver tissue homogenates ([3]; microsomes vs liver tissue homogenates): at least 37 fold; fold better stability than 5′-O-L-valyl-floxuridine ([6]; human liver tissue homogenates (non-tumor and tumor)): 3- to 10 fold; fold more stable than 5′-O-L-valyl-floxuridine ([7]; Caco-2 homogenate): 16.1 fold; Half-lives, Capan-2 Cell Homogenate ([8]; mean ± SD, n = 3, NA = no significant degradation): 188.3 ± 12.1 min |
| CC[C@H](C)[C@H](N)C(=O)OC[C@H]1O[C@@H](n2cc(F)c(=O)[nH]c2=O)C[C@@H]1O [5′-O-L-isoleucyl-floxuridine] | 198.0 ± 70.2 ^b min | 19.4 ± 7.8 | < 0.2 min ^∞ | 323.5 ± 1.5 ^a min | 5.2 ± 0.1 | 131.6 ± 48.4 | 139.9 ± 15.3 ^b min | – |
| CC(C)C[C@H](N)C(=O)OC[C@H]1O[C@@H](n2cc(F)c(=O)[nH]c2=O)C[C@@H]1O [5′-O-L-leucyl-floxuridine] | 2.0 ± 0.1 ^a min | 0.8 ± 0.1 | – | 83.2 ± 1.7 ^b min | < 0.2 | 3.3 ± 0.9 | 4.7 ± 2.1 ^b min | – |
| N[C@@H](Cc1ccccc1)C(=O)NCC(=O)OC[C@H]1O[C@@H](n2cc(F)c(=O)[nH]c2=O)C[C@@H]1O [5′-O-L-phenylalanyl-L-glycyl-floxuridine] | 10.2 ± 0.3 ^b min | 15.9 ± 1.9 | – | 132.1 ± 10.2 ^b min | 3.2 ± 0.3 | 2.9 ± 0.5 | 4.3 ± 0.9 ^b min | – |
| N[C@@H](Cc1ccccc1)C(=O)N[C@@H](Cc1ccc(O)cc1)C(=O)OC[C@H]1O[C@@H](n2cc(F)c(=O)[nH]c2=O)C[C@@H]1O [5′-O-L-phenylalanyl-L-tyrosyl-floxuridine] | 59.7 ± 1.4 ^b min | 253.0 ± 36.2 | 241.4 ± 5.1 min | 233.9 ± 6.6 ^b min | 358.3 ± 20.3 | 115.2 ± 54.2 | 42.8 ± 0.0 ^b min | – |
| N[C@@H](Cc1ccccc1)C(=O)OC[C@H]1O[C@@H](n2cc(F)c(=O)[nH]c2=O)C[C@@H]1O [5′-O-L-phenylalanyl-floxuridine] | 11.8 ± 1.7 ^b min | 1.3 ± 0.4 | – | 187.0 ± 19.0 ^b min | 3.2 ± 1.2 | 12.2 ± 0.1 | 3.0 ± 0.1 ^b min | – |
| CC(C)[C@H](N)C(=O)N[C@@H](Cc1ccccc1)C(=O)OC[C@H]1O[C@@H](n2cc(F)c(=O)[nH]c2=O)C[C@@H]1O [5′-O-L-valyl-L-phenylalanyl-floxuridine] | 51.6 ± 4.2 ^b min | 24.7 ± 2.4 | < 0.2 min ^* ^∞ | 104.7 ± 7.0 ^b min | 2.2 ± 0.0 | 57.6 ± 9.3 | 56.2 ± 12.8 ^b min | – |
| CC(C)[C@H](N)C(=O)OC[C@H]1O[C@@H](n2cc(F)c(=O)[nH]c2=O)C[C@@H]1O [5′-O-L-valyl-floxuridine] | 18.7 ± 6.7 ^b min | 2.9 ± 0.1 | 3.5 ± 0.2 ^∞ min | 304.0 ± 33.3 ^b min | 2.0 ± 0.3 | 13.7 ± 2.0 | 5.2 ± 2.4 ^b min | – |
| O=c1[nH]c(=O)n([C@H]2C[C@H](O)[C@@H](CO)O2)cc1F [Floxuridine, 5-fluoro-2′-deoxyuridine, reference compound] | – | – | – | – | – | – | – | stability (in words) [10]: good stability; half-life ([10]; human, non-tumor, pH 7.4): 209 ± 19.4 min; half-life ([2]; human, pH 7.4): 14 ± 4 min; half-life ([3]; human, human liver microsomes): < 0.2 min; half-life ([6]; human, human non-tumor liver tissue homogenate, pH 7.4): 5 ± 2.4 min; fold higher potency than 5-FU [11]: 10- to 100 fold; half-life [12]: 6.4 ± 3.2 min; half-life ([7]; human, Caco-2, pH 7.4): 14.3 ± 7 min; half-life ([8]; human, Capan-2 cell homogenate, pH 7.4): 17.8 ± 5.8 min |
| O=C(O[C@H]1C[C@H](n2cc(F)c(=O)[nH]c2=O)O[C@@H]1CO)[C@@H]1CCCN1 [Floxuridine-3′-L-proline] | – | – | – | – | – | – | – | stability (in words) ([2]; human small bowel tissue homogenate): stable; stability (in words) [13]: stable; degradation (in words) ([3]; human liver microsomes, over 2 hr): no significant degradation; degradation (in words) ([6]; human liver tissue homogenate, over 2 hr): no significant degradation; stability (in words) ([7]; Caco-2 cell homogenate): stable |
